Measured values from ChEMBL document CHEMBL4396953, “Synthesis and highly potent anti-inflammatory activity of licofelone- and ketorolac-based 1-arylpyrrolizin-3-ones” (2019).

Columns and labels:
Format in all cases: functional
Mus musculus [1] = assay: Antiinflammatory activity in CD1 mouse model of TPA-induced ear edema assessed as ear edema formation at 2 mg/ear administered topically after TPA challenge for 30 mins and measured after 6 hrs post administration (reference value: 17.61 to 19.82 mg)
Mus musculus [2] = assay: Antiinflammatory activity in CD1 mouse model of TPA-induced ear edema assessed as reduction in ear edema formation administered topically after TPA challenge for 30 mins and measured after 6 hrs post administration
Mus musculus [3] = assay: Antiinflammatory activity in CD1 mouse model of TPA-induced ear edema assessed as inhibition of ear edema at 1 mg/ear administered topically after TPA challenge for 30 mins and measured after 6 hrs post administration relative to control
Mus musculus [4] = assay: Antiinflammatory activity in CD1 mouse model of TPA-induced ear edema assessed as inhibition of ear edema at 0.5 mg/ear administered topically after TPA challenge for 30 mins and measured after 6 hrs post administration relative to control
Mus musculus [5] = assay: Antiinflammatory activity in CD1 mouse model of TPA-induced ear edema assessed as inhibition of ear edema at 2 mg/ear administered topically after TPA challenge for 30 mins and measured after 6 hrs post administration relative to control
Mus musculus [6] = assay: Antiinflammatory activity in CD1 mouse model of TPA-induced ear edema assessed as ear edema formation at 0.5 mg/ear administered topically after TPA challenge for 30 mins and measured after 6 hrs post administration (reference value: 17.61 to 19.82 mg)
Mus musculus [7] = assay: Antiinflammatory activity in CD1 mouse model of TPA-induced ear edema assessed as ear edema formation at 1 mg/ear administered topically after TPA challenge for 30 mins and measured after 6 hrs post administration (reference value: 17.61 to 19.82 mg)
J774.A1 = assay: Antiinflammatory activity in mouse J774A.1 cells LPS-induced NO production at 25 ug/ml incubated for 2 hrs followed by LPS-stimulation measured after 24 hrs by Griess assay relative to control

Row | SMILES | Activity (Mus musculus [1]) [mg] | Activity (Mus musculus [2]) | ED50 (Mus musculus [2]) [mg] | inhibition (INH) (Mus musculus [3]) | inhibition (INH) (Mus musculus [4]) | inhibition (INH) (Mus musculus [5]) | Activity (Mus musculus [6]) [mg] | Activity (Mus musculus [7]) [mg] | Activity (J774.A1) [%]
1 | COC(=O)C1=C(c2ccc(Br)cc2)c2cccn2C1=O | 11.72 | Dose-dependent effect | 3.23 | 29.73% | 8.46% | 40.88% | 18.14 | 13.93 | –
2 | COC(=O)Cn1cccc1C=O | 11.87 | – | – | – | – | 33.73% | – | – | –
3 | COc1ccc2c(c1)c(CC(=O)O)c(C)n2C(=O)c1ccc(Cl)cc1 [INDOMETHACIN] | 6.99 to 10.49 | Dose-dependent effect | 1.07 to 1.29 | 41.97 - 52.37% | 32.12 - 41.44% | 41.47 - 61.1% | 1.22 to 11.51 | 9.01 to 9.44 | 64.63
4 | COC(=O)C1=C(c2ccc([N+](=O)[O-])cc2)c2cccn2C1=O | 9.2 | Dose-dependent effect | 1.86 | 24.1% | 8.52% | 53.43% | 18.13 | 15.04 | –
5 | COC(=O)/C(=C\N(C)C)n1cccc1C=O | 14.09 | – | – | – | – | 21.37% | – | – | –
